From publication PMC6332334, “3-H-[1,2]Dithiole as a New Anti-Trypanosoma cruzi Chemotype: Biological and Mechanism of Action Studies” (Molecules, 2015)

Legend:
[1] = biological target: T1, cruzipain (Trypanosoma cruzi, UniProt P25779); assay: Inhibition of T. cruzi cruzipain (Z-Phe-Arg-AMC fluorogenic substrate); assay type: biochemical; settings: percentage of enzymatic inhibition at 100 μM; read-out: Cruzipain % Inhib100
T1 construct: endogenous in cells; host or cells: T. cruzi epimastigotes, Tulahuen 2 strain
T1 sequence (P25779 123-467): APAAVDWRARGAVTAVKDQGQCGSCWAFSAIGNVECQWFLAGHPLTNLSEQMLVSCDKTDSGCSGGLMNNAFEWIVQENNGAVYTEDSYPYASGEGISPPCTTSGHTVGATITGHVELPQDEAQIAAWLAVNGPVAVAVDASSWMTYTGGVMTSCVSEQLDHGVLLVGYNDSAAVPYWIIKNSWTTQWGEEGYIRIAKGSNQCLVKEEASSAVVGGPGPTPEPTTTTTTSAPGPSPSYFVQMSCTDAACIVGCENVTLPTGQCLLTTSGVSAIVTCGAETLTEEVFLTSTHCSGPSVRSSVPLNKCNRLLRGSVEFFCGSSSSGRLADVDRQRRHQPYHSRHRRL
Procedure: Initially, we tested the dithioles as inhibitors of the protease cruzipain from T. cruzi at a concentration of 100 μM.
Cruzipain was purified to homogeneity from epimastigotes of the Tulahuen 2 strain by ConA-Sepharose affinity chromatography, as previously described. Cruzipain (2.5 μM ε = 58,285 M^−1·cm^−1) was incubated in 50 mM acetate buffer pH 5.5 with 50 mM DTT and 100 μM inhibitor was added, shaking the solution for 15 min at 27 °C. The derivatives were added diluted in DMSO, and the controls contained the same solvent concentration. The concentration of DMSO never exceeded 1% in the reaction medium. E-64 was used as a positive control of inhibition. Then, the fluorogenic substrate Z-Phe-Arg-AMC (100 μM) was added and the fluorescence was measured during 10 min at intervals of 3 s (excitation at 350 nm and emission at 460 nm) using a Varioskan Flash Spectrophotometer. From the slope of the negative control, we calculated the total (100%) enzyme activity, while the slopes obtained in the presence of the compounds yielded the percentage of remaining enzyme activity. The percentage of enzyme inhibition was determined as […]. The experiments were done in duplicate.

[2] = biological target: T1, cruzipain; assay: as above; assay type: biochemical; settings: isolated enzyme
[3] = biological target: T2, Trypanosoma cruzi triosephosphate isomerase (TcTIM) (Trypanosoma cruzi, UniProt P52270); assay: Inhibition of enzymatic activity of TcTIM; assay type: biochemical
T2 construct: made in house; host or cells: Escherichia coli
T2 sequence (P52270 whole entry): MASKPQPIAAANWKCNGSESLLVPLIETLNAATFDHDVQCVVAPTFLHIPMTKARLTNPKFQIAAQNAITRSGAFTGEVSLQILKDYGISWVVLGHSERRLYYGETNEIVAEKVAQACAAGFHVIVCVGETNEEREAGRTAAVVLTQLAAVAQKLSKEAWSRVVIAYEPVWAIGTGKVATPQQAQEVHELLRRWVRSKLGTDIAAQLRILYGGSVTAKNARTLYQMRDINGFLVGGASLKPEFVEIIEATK
Procedure: In order to investigate if the 3H-[1,2]dithioles inhibit TcTIM, we initially tested the inhibitory capacity of the compounds at a concentration of 200 μM and then at 25 μM.
Expression and purification of protein: TcTIM was expressed in Escherichia coli and purified as described in the literature. After purification, the enzyme, dissolved in 100 mM triethanolamine, 10 mM EDTA and 1 mM dithiothreitol (pH 8), was precipitated with ammonium sulfate (75% saturation) and stored at 4 °C. Before use, extensive dialysis against 100 mM triethanolamine/10 mM EDTA (pH 7.4) was performed. Protein concentration was determined by absorbance at 280 nm (ε = 36,440 M^−1·cm^−1).
Enzymatic activity assays. Enzymatic activity was determined following the conversion of glyceraldehyde 3-phosphate into dihydroxyacetone phosphate. The decrease in absorbance at 340 nm was followed in a multicell Cary spectrophotometer at 25 °C. The reaction mixture (1 mL, pH 7.4) contained 100 mM triethanolamine, 10 mM EDTA, 0.2 mM NADH, 1 mM glyceraldehyde 3-phosphate, and 0.9 units of α-glycerol phosphate dehydrogenase. The reaction was initiated by addition of 5 ng/mL of the TcTIM.
For inactivation studies, TcTIM was incubated at a concentration of 5 mg/mL in a buffer containing 100 mM triethanolamine, 10 mM EDTA, pH 7.4 and 10% of DMSO at 36 °C. The mixture also contained the compounds at the indicated concentrations. Compounds were dissolved in DMSO. After 2 h, […] was withdrawn and added to 1 mL of reaction mixture for the activity assay. None of the molecules tested here affected the activity of α-glycerol phosphate dehydrogenase, the enzyme used for trapping the product.
The IC50 value was taken as the concentration of drug needed to reduce the enzymatic activity to 50%. The experiments were performed in triplicate.

[4] = system: epimastigotes of T. cruzi (Tulahuen 2 strain); assay: Anti-T. cruzi test in vitro (epimastigote growth inhibition); assay type: cell-based, Trypanosoma cruzi
Procedure: (§1) To evaluate the anti-trypanosomal activity of the synthesized 3H-[1,2]dithioles we used T. cruzi, Tulahuen 2 strain (discrete typing unit, DTU, TcVI [18]) in the epimastigote form. […] To establish the selectivity of the compounds against the parasite, unspecific cytotoxicity against mammalian cells (J774.1 murine macrophages) was studied for the most relevant derivatives. The selectivity indexes (SI) were also determined (Table 1).
We used epimastigotes of the Tulahuen 2 strain (DTU, Tc VI) growing in an axenic milieu (BHI-Tryptose). Cells from a 5–7-day-old culture were inoculated in fresh culture milieu to give an initial concentration of 1 × 10^6 cells/mL. The absorbance at 600 nm of the cells in culture was measured every day. At day 5, the milieu was inoculated with different quantities of the compounds from a stock solution in DMSO (DMSO concentration in the culture milieu never exceeded 0.4%). The control was made in the presence of 0.4% DMSO and in the absence of compounds. […] At day 5, the absorbance of the culture was measured and related to the control. The IC50 value was taken as the concentration of drug needed to reduce the absorbance ratio to 50%.

[5] = system: J774.1 murine macrophages; assay: Unspecific in vitro cytotoxicity of mammalian cells (MTT); assay type: cell-based; settings: Mus musculus, 48 h exposure, read-out: IC50 against Macrophages
Procedure: as §1
J774.1 murine macrophage cells (ATCC, Manassas, VA, USA) were grown in DMEM culture milieu containing 4 mM L-glutamine and supplemented with 10% heat-inactivated fetal calf serum. […] Afterwards, cells were exposed for 48 h to the compounds (25–400 μM) or vehicle for control (0.4% DMSO), and additional controls (cells in medium) were used in each test. Cell viability was then assessed by measuring the mitochondria-dependent reduction of MTT (3-(4,5-dimethylthiazol-2-yl)-2,5-diphenyltetrazolium bromide) to formazan. For this purpose, MTT in sterile PBS (0.2% glucose) pH 7.4 was added to the macrophages to achieve a final concentration of 0.1 mg/mL and the cells were incubated at 37 °C for 3 h. After removing the medium, formazan crystals were dissolved in 180 μL of DMSO and 20 μL of MTT buffer (0.1 M glycine, 0.1 M NaCl, 0.5 mM EDTA, pH 10.5) and the absorbance at 560 nm was measured. The IC50 was defined as the drug concentration at which 50% of the cells were viable, relative to the control (no drug added), and was determined by analysis using OriginLab8.5® sigmoidal regression (% of viable cells vs. logarithm of the compound concentration). Samples were performed in triplicate.

inhibition at 100 µM [1]: 91.3 ± 2.8%
IC50 [2]: 15.5 ± 2.7 µM
inhibition at 25 µM ([3]; percentage of enzymatic inhibition at 25 μM, read-out: TcTIM % Inhib25): 48 ± 4%
inhibition at 200 µM ([3]; percentage of enzymatic inhibition at 200 μM, read-out: TcTIM % Inhib200): 72%
Structure (SMILES): CC(=O)COc1ccc(C2=C/C(=C(\SCC(C)=O)C(C)=O)SS2)cc1 [Derivative 2]
IC50 ([4]; Trypanosoma cruzi, epimastigotes, Tulahuen 2 strain, triplicate, read-out: IC50 against T. cruzi): 7.7 ± 1.4 µM
SI (selectivity index) ([4]; macrophages (J774.1) vs T. cruzi epimastigotes): 3.1
IC50 [5]: 24 ± 1 µM
